Where two headings read alike, the source gives them in different places.
What was measured:
[1] = biological target: T1, serotonin S2 (5-HT2) receptors (Rattus norvegicus, UniProt P14842); experiment: inhibition of 3H-ketanserin binding to serotonin S2 (5-HT2) receptors in rat cortex in vitro; conditions: 3H-ketanserin 0.5 nM, rat cortex membranes, read-out: Binding IC50, 3H Ket.
T1 construct: cortical tissue is dissected and weighed; from tissue; host or cells: cerebral cortex membranes of male Wistar (Mol:Wist) rats
T1 sequence (P14842 whole entry): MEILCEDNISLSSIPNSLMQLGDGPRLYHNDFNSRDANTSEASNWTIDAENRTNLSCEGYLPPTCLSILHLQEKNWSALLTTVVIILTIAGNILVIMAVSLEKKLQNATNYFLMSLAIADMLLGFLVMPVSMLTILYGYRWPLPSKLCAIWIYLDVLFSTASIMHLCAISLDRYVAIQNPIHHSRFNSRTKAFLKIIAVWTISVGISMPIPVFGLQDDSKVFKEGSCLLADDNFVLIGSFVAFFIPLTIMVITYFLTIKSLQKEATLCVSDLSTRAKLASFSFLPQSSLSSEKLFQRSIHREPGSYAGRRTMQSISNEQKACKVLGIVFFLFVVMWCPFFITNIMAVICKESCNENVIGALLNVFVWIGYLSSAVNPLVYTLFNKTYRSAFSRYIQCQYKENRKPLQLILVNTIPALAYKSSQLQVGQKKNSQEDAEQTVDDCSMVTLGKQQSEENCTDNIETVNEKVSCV
Method: Method in Hyttel, Pharmacology & Toxicology, 61, 126-129. 1987.
Male Wistar (Mol:Wist) rats (125-250 g) are sacrifices and cortical tissue is dissected and weighed. The tissue is homogenized (Ultra Turrax, 10 sec.) in 10 ml of ice-cold 50 mM tris buffer pH 7.7 (at 25° C.). The centrifuge glassware used in this step has been rinsed by sonication for 10 min. in ethanol. The homogenate is centrifuged twice at 20,000 g for 10 min. at 4° C. with rehomogenization of the pellet in 10 ml ice-cold buffer. The final pellet is homogenized in 500 vol (w/v) ice-cold buffer.
Incubation tubes kept on ice in triplicate receive 100 μl of drug solution in water (or water for total binding) and 2000 μl of tissue suspension (final tissue content corresponds to 4 mg original tissue). […] After incubation for 30 min. the samples are filtered under vacuum (0-50 mBar) through Whatman GF/F filters (25 mm). The tubes are rinsed with 5 ml ice-cold buffer which are then poured on the filters. Thereafter, the filters are washed with 2×5 ml of buffer. The filters are placed in counting vials and 4 ml of appropriate scintillation fluid (e.g., Picofluor™15) are added. After shaking for 1 h and storage 2 hrs in the dark the content of radioactivity is determined by liquid scintillation counting. Specific binding is obtained by subtracting the nonspecific binding in the presence of 1 μM mianserin. For determination of the inhibition of binding five concentrations of drugs covering 3 decades are used.
The IC50 value is determined as the concentration at which the binding is 50% of the total binding in control samples minus the nonspecific binding in the presence of 1 μM mianserin.

5-HT2 = biological target: T2, 5-HT2 (Rattus norvegicus, UniProt P14842); experiment: quipazine inhibition (quipazine-induced head twitches in rats); type: in vivo
T2 construct: Four rats, male Wistar (Mol:Wist) SPF rats weighing 170-240 g; from tissue; host or cells: living male Wistar (Mol:Wist) SPF rats (in vivo, endogenous receptor)
T2 sequence (P14842 whole entry): as above
Method: Quipazine is a 5-HT2 agonist, which induces head twitches in rats. The test is a test for 5-HT2 -antagonistic effect testing the ability to inhibit head twitches. The method and test results for some reference substances are published by Arnt et al. (Drug Development Research, 16, 59-70, 1989).
Test substance is injected s.c. 2 hrs before or p.o. 24 hrs before quipazine administration (6.8 mg/kg, s.c., dimaleate). Four rats, male Wistar (Mol:Wist) SPF rats weighing 170-240 g, are used at each dose level. A control group is included each test day. By repeated testing (2, 24 hrs) the control group is the same, however. After quipazine administration the rats are individually placed in the observation cages and head twitches are counted in an observation period of 30-40 min. after injection of quipazine.
Total number of head twitches in each group is calculated and the result for each dose is expressed as per cent of the response in the control group. ED50 values are calculated by log-probit analysis. The test must be repeated if the average number of head twitches is lower than 9 in the control group.

DA D-2 = biological target: T3, DA D-2 (Rattus norvegicus, UniProt P61169); experiment: antagonism of pergolide-induced circling behaviour in rats with unilateral 6-OHDA lesions; type: in vivo; conditions: sc, read-out: Pergolide rot. inhibition ED50, 2h (sc), 6-OHDA lesions, s.c., 2 h before pergolide
T3 construct: Male Wistar rats (Mol:Wist) weighing about 200 g at the time of operation are used; from tissue; host or cells: living male Wistar (Mol:Wist) rats with unilateral 6-OHDA lesions (in vivo, endogenous receptor)
T3 sequence (P61169 whole entry): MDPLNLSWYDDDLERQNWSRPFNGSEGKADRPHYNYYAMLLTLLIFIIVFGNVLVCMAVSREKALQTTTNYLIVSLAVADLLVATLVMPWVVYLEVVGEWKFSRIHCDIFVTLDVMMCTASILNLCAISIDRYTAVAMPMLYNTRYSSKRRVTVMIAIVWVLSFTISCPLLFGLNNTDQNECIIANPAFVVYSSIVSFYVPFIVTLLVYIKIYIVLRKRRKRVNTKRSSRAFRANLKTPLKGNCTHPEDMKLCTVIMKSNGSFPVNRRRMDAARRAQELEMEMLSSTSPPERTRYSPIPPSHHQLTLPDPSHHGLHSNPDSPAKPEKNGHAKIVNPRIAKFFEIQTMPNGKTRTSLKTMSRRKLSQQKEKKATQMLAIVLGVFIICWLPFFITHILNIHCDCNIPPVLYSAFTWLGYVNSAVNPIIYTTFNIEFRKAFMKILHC
Method: ANTAGONISM OF PERGOLIDE-INDUCED CIRCLING BEHAVIOUR IN RATS WITH UNILATERAL 6-OHDA LESIONS
Dopamine (DA) D-2 agonists induce contralateral circling behaviour in rats with 6-OHDA lesions. Pergolide-induced circling is antagonized by DA D-2 antagonists.
Male Wistar rats (Mol:Wist) weighing about 200 g at the time of operation are used. Unilateral lesions are made in pentobarbital anaesthetized rats by injection of 6-OHDA. HCl 9.7 μg/μl (equivalent to 8 μg free base) per 4 min. into the rostral tip of the substantia nigra. The saline solution contains ascorbic acid 0.2 mg/ml, is bubbled with N2 and is kept ice-cold. The experiments are done when stable contralateral circling responses to pergolide (0.05 μmol/kg, s.c.) are obtained. The circling response is measured in rotometer bowls. Only rats showing more than 400 complete turns in 2 hrs control session are used. Dose-response curves are obtained by alternating test and control sessions on a weekly basis. The antagonists are injected s.c. 2 hrs before the agonist. The effect of individual doses of test drugs is calculated as per cent of the mean effect of control sessions one week before and one week after the test session for each rat. ED50 values are calculated by log-probit analysis. Four to eight rats are used at each dosage.

α1 adrenoceptors = experiment: inhibition of 3H-prazosin binding to α1 adrenoceptors in rat brain in vitro; conditions: 3H-prazosin 0.25 nM, rat brain membranes, read-out: Binding IC50, 3H Praz.
Method: INHIBITION OF ^3 H-PRAZOSIN BINDING TO α1 ADRENOCEPTORS IN RAT BRAIN IN VITRO
Method and results in Hyttel and Larsen, J. Neurochem, 44, 1615-1622, 1985; Skarsfeldt and Hyttel, Eur. J. Pharmacol. 125, 323-340, 1986.
(§1) Male Wistar (Mol:Wist) rats (125-200 g) are sacrificed and brain tissue is dissected and weighed. The tissue is homogenized (Ultra Turrax, 10 sec.) in 10 ml of ice-cold 50 nM Tris buffer pH 7.7 (at 25° C.). The homogenate is centrifuged twice at 20,000 g for 10 min. at 4° C. with rehomogenization of the pellet in 10 ml ice-cold buffer. The final pellet is homogenized in 400 vol (w/v) ice-cold buffer.
Incubation tubes kept on ice in triplicate receive 100 μl of drug solution in water (or water for total binding) and 4000 μl of tissue suspension (final tissue content corresponds to 10 mg original tissue). The binding experiment is initiated by addition of 100 μl of ^3 H-Prazosin (final concentration 0.25 nM) and by placing the tubes in a 25° C. water bath. After incubation for 20 min. the samples are filtered under vacuum (0-50 mBar) through Whatman GF/F filters (25 mm). The tubes are rinsed with 5 ml ice-cold buffer which then are poured on the filters. Thereafter, the filters are washed with 5 ml of buffer. The filters are placed in counting vials and 4 ml of appropriate scintillation fluid (e.g. Picofluor™15) are added. After shaking for 1 h and storage 2 hrs in the dark the content of radioactivity is determined by liquid scintillation counting. Specific binding is obtained by subtracting the nonspecific binding in the presence of 1 μM of Prazosin.
(§2) For determination of the inhibition of binding five concentrations of drugs covering 3 decades are used.
The measured cpm are plotted against drug concentration on semilogarithmic paper and the best fitting S-shaped curve is drawn. The IC50 value is determined as the concentration at which the binding is 50% of the total binding in control samples minus the nonspecific binding in the presence of 1 μM of Prazosin. ^3 H-Prazosin=[furoyl-5-^3 H]-Prazosin from New England Nuclear, specific activity approximately 20 Ci/mmol.

dopamine D-2 receptors = biological target: T4, dopamine D-2 receptors (Rattus norvegicus, UniProt P61169); experiment: inhibition of 3H-spiperone binding to dopamine D-2 receptors in rat corpus striatum in vitro; conditions: 3H-spiperone 0.5 nM, rat corpus striatum membranes, in vitro; read-out: Binding IC50, 3H Spi.
T4 construct: striatal tissue is dissected and weighed; from tissue; host or cells: corpus striatum membranes of male Wistar rats
T4 sequence (P61169 whole entry): as above
Method: INHIBITION OF ^3 H-SPIPERONE BINDING TO DOPAMINE D-2 RECEPTORS IN RAT CORPUS STRIATUM IN VITRO
By this method the inhibition by drugs of the binding of ^3 H-spiperone (0.5 nM) to dopamine D-2 receptors in membranes from rat corpus striatum is determined in vitro. Method and results in Hyttel and Larsen, J. Neurochem, 44, 1615-1622, 1985).
as §1, with “(Mol:Wistar)” for “(Mol:Wist)”, “(125-250” for “(125-200”, “striatal” for “brain”, “mM K-phosphate” for “nM Tris”, “7.4” for “7.7”, “1300” for “400”
Incubation tubes kept on ice in triplicate receive 100 μl of drug solution in water (or water for total binding) and 4000 μl of tissue suspension (final tissue content corresponds to 3.08 mg original tissue). The binding experimental is initiated by addition of 100 μl of ^3 H-spiperone (final concentration 0.5 nM) and by placing the tubes in a 37° C. water bath. After incubation for 10 min. the samples are filtered under vacuum (0-50 mBar) through Whatman GF/F filters (25 mm). The tubes are rinsed with 5 ml ice-cold buffer which are then poured on the filters. Thereafter, the filters are washed with 2×5 ml of buffer. The filters are placed in counting vials and 4 ml of appropriate scintillation fluid (e.g. Picofluor ™15) are added. After shaking for 1 h and storage 2 hrs in the dark the content of radioactivity is determined by liquid scintillation counting. Specific binding is obtained by subtracting the nonspecific binding in the presence of 10 μM of 6,7-ADTN.
as §2
England, specific activity 15-25 Ci/mmol.

[2] = sc, 2 h, read-out: Quipazine inhibition ED50, 2h (sc)
[3] = po, 24 h, read-out: Quipazine inhibition ED50, 24h (po)

| SMILES | IC50 [1] | ED50 (5-HT2; [2]) | ED50 (DA D-2) | ED50 (5-HT2; [3]) | IC50 (α1 adrenoceptors) | IC50 (dopamine D-2 receptors) |
| --- | --- | --- | --- | --- | --- | --- |
| O=C1NCCN1CCN1CCC(c2cn(-c3ccc(F)cc3)c3cc(Cl)ccc23)CC1 [Compound 4b, 6-chloro-1-(4-fluorophenyl)-3-[1-[2-(2-imidazolidinon-1yl)ethyl]-4-piperidyl]-1H-indole] | 1.4 nM | 0.06 µmol/kg | > 23 µmol/kg |  |  |  |
| O=C1NCCN1CCN1CCC(c2cn(-c3ccc(F)cc3)c3cc(Cl)c(Cl)cc23)CC1 [Compound 5f, 5,6-dichloro-1-(4-fluorophenyl)-3-[1-[2-(2-imidazolidinon-1-yl)ethyl]-4-piperidyl]-1H-indole] | 3.5 nM | 0.12 µmol/kg | > 42 µmol/kg | 0.04 µmol/kg |  |  |
| Cc1ccc2c(N3CCN(CCN4CCN(C(C)C)C4=O)CC3)cn(-c3ccc(F)cc3)c2c1 [Compound 6b, 1-(4-fluorophenyl)-6-methyl-3-[4-[2-[3-(2-propyl)-2-imidazolidinon-1-yl]ethyl]-1-piperazinyl]-1H-indole] | 2.7 nM | 0.04 µmol/kg |  |  | 76 nM | 180 nM |
| Cc1ccc2c(C3CCN(CCNC(=O)N(C)C)CC3)cn(-c3ccc(F)cc3)c2c1 [Compound 9b, 3-[1-[2-(3,3-dimethyl-1-ureido)-1-ethyl]-4-piperidyl]-1-(4-fluorophenyl)-6-methyl-1H-indole] | 2.6 nM | 0.12 µmol/kg |  | < 0.14 µmol/kg |  |  |
| Cc1ccc2c(C3CCN(CCN4CCN(C(C)C)C4=O)CC3)cn(-c3ccccc3)c2c1 [Compound 15a] | 2 nM | 0.01 µmol/kg |  |  | 120 nM | 500 nM |
| Cc1ccc2c(C3CCN(CCN4CCN(C(C)C)C4=O)CC3)cn(-c3cccc(F)c3)c2c1 [Compound 15g, 1-(3-fluorophenyl)-3-[1-[2-[3-(2-propyl)-2-imidazolidinon-1-yl]ethyl]-4-piperidyl]-6-methyl-1H-indole] | 11 nM |  |  |  | 670 nM | 3200 nM |
| Cc1ccc2c(C3CCN(CCN4CCN(C(C)C)C4=O)CC3)cn(-c3ccc(Cl)cc3)c2c1 [Compound 15h, 1-(4-chlorophenyl)-3-[1-[2-[3-(2-propyl)-2-imidazolidinon-1-yl]ethyl]-4-piperidyl]-6-methyl-1H-indole] | 6 nM |  |  |  | 450 nM | 620 nM |
| CC(C)N1CCN(CCN2CCC(c3cn(-c4ccccc4F)c4cc(Cl)ccc34)CC2)C1=O [Compound 15j, 6-chloro-1-(2-fluorophenyl)-3-[1-[2-[3-(2-propyl)-2-imidazolidinon-1-yl]ethyl]-4-piperidyl]-1H-indole] | 3.7 nM | 0.08 µmol/kg |  |  | 120 nM | 300 nM |
| Cc1ccc2c(c1)N(c1ccc(F)cc1)CC2C1CCN(CCN2CCN(C(C)C)C2=O)CC1 (centres unmarked) [Compound 20a, 1-(4-fluorophenyl)-6-methyl-3-[1-[2-[3-(2-propyl)-2-imidazolidinon-1-yl]ethyl]-4-piperidyl]-2,3-dihydro-1H-indole] | 5.3 nM | 0.49 µmol/kg |  |  |  | 180 nM |
| Cc1c(C2CCN(CCN3CCNC3=O)CC2)c2ccccc2n1-c1ccc(F)cc1 [Compound 24c, 1-(4-fluorophenyl)-3-[1-[2-(2-imidazolidinon-1-yl)ethyl]-4-piperidyl]-2-methyl-1H-indole] | 0.69 nM |  |  |  | 61 nM | 380 nM |
| CN(C)CCSc1nc2ccccc2cc1-c1ccccc1 [ICI 169369, reference compound] | 15 nM | > 3.6 µmol/kg |  |  | 300 nM | 490 nM |

From US5216001A, “Indole derivatives” (H. Lunbeck A/S, priority 1990, dated 1993)
